{"source": "patent US20160324916A1", "about": "“PROCESS FOR THE SYNCHRONIZATION OF OVULATION FOR TIMED BREEDING WITHOUT HEAT DETECTION” (priority 2003, published 2016)", "key": {"postpartum sows": {"tested_on": "postpartum sows", "assay": "Single timed injection 96 hours post-weaning and single timed insemination without estrus detection in postpartum sows (Example 3)", "assay_type": "in vivo, swine", "details": "50 mcg in SAIB 96 hours post-weaning, single timed insemination, no estrus detection", "protocol": "Approximately 170 postpartum sows were randomly divided into two equal groups comprised of controls and treated. Following weaning, the controls were detected for estrus and bred following the normal standard operating procedures for the farms on which they resided. The treated sows received a 50 mcg dose of deslorelin in SAIB at 96 hours post-weaning and were bred with a single insemination 28+/−2 hours later with no regard to estrus detection. The sows were examined for pregnancy by ultrasound at 21 days and slaughtered around 28 days post breeding. The entire reproductive tract was removed and corpora lutea and embryos were counted."}, "mature postpartum sows": {"tested_on": "mature postpartum sows", "assay": "Intravulvar injection at estrus detection in mature postpartum sows, AI breeding (Example 2)", "assay_type": "in vivo, swine", "details": "50 mcg intravulvar at estrus detection", "protocol": "Sows were assigned randomly in blocks of two to either control or to be injected intravulvar with 50 mcg of deslorelin in SAIB at the time of estrus detection for sows first detected in estrus in the a.m. and 12 hours later for those first detected in estrus in the p.m. Treated animals were bred AI upon detected estrus and again 24 hours later if still in estrus. Controls received a saline injection on first detected estrus behavior estrus detection and were bred according to the farm's normal procedures."}}}
{"compound": "CCNC(=O)[C@@H]1CCCN1C(=O)[C@H](CCCN=C(N)N)NC(=O)[C@H](CC(C)C)NC(=O)[C@@H](Cc1c[nH]c2ccccc12)NC(=O)[C@H](Cc1ccc(O)cc1)NC(=O)[C@H](CO)NC(=O)[C@H](Cc1c[nH]c2ccccc12)NC(=O)[C@H](Cc1cnc[nH]1)NC(=O)[C@@H]1CCC(=O)N1", "note": "[Deslorelin, deslorelin]", "values": [{"measurement": "Pregnancy Rate", "setting": "postpartum sows", "value": 71, "unit": "%"}, {"measurement": "Pregnancy rates, Control versus Treated", "setting": "mature postpartum sows", "value": "no significant difference"}]}
